The target of assay [1] is T1, β-glucosidase GBA2 (Homo sapiens, UniProt Q9HCG7).
T1 construct: expressed in transfected cells; host or cells: HEK293T
T1 sequence (Q9HCG7 1-927): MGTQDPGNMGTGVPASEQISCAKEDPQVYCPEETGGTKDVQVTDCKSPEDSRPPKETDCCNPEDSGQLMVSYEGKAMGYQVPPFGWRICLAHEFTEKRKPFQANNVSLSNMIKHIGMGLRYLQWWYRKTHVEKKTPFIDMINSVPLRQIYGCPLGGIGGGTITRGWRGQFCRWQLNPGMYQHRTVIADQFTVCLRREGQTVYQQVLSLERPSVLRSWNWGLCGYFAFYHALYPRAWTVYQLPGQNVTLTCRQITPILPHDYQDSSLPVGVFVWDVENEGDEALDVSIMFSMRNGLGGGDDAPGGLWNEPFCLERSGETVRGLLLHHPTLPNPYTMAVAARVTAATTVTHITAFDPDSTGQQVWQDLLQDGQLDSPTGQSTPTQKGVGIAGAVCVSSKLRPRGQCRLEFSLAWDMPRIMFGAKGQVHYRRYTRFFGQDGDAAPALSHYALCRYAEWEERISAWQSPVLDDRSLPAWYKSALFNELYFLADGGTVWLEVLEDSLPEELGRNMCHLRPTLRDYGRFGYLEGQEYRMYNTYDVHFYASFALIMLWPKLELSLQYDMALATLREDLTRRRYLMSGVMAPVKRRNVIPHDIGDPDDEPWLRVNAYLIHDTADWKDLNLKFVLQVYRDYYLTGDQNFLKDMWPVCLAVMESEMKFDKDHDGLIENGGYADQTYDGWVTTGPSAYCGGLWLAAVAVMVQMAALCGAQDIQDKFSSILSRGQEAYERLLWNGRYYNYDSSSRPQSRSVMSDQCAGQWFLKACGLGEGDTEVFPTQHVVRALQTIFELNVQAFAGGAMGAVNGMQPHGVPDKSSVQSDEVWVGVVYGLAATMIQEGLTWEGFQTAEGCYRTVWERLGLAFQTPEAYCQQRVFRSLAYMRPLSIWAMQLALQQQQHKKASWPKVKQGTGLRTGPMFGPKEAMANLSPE
Kind of assay: in vitro apparent IC50, GBA2-overexpressing HEK293T lysate. The format is biochemical. The settings on record: apparent IC50, pH 5.8, mean ± SD.

The target of assay [2] is T2, ER α-glucosidase II (GANAB) (Homo sapiens, UniProt Q14697).
T2 construct: GANAB (from Pompe Disease Fibroblast Lysates); endogenous in cells; host or cells: human fibroblasts (lysate)
T2 sequence (Q14697 29-944): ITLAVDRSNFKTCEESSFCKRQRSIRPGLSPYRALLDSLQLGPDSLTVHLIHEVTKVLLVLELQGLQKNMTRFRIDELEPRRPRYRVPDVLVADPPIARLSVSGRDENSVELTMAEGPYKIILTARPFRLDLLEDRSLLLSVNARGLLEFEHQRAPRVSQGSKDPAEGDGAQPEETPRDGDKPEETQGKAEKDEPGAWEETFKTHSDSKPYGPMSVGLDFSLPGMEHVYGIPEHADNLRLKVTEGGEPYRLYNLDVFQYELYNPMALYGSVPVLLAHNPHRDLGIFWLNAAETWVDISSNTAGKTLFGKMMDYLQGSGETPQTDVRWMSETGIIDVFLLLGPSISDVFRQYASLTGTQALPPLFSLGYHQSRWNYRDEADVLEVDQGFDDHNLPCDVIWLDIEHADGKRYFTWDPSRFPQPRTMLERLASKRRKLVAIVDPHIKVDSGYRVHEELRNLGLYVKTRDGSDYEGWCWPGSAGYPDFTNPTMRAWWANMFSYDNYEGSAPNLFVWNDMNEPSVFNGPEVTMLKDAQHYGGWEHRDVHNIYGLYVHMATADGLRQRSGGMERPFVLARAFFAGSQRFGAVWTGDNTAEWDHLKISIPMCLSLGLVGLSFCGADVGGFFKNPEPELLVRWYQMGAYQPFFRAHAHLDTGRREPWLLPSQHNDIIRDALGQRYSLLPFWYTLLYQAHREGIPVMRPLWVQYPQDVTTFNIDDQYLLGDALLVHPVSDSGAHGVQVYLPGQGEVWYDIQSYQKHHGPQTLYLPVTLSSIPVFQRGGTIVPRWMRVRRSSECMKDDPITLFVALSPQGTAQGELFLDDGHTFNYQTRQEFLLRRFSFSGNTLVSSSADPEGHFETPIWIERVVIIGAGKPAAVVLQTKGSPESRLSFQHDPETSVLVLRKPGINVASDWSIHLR
T2 sequence (P14314 15-528 partner): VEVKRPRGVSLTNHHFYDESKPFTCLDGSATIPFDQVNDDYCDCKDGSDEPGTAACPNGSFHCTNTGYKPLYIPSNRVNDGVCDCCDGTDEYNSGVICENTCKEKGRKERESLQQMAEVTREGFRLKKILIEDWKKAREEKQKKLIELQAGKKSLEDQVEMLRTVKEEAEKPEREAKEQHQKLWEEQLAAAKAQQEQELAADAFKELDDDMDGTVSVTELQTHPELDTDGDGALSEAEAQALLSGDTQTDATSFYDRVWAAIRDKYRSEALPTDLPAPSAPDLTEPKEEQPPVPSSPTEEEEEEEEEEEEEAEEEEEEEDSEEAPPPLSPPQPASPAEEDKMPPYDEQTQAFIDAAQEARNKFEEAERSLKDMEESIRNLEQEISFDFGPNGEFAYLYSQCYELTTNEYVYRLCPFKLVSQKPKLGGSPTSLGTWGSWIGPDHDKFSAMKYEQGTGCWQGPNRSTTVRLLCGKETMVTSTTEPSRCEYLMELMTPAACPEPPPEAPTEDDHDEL
As to the kind of experiment: in vitro apparent IC50, GANAB in fibroblast lysates, 4-MU-α-D-glucopyranoside. The format is biochemical. The settings on record: apparent IC50; Pompe disease fibroblast lysates; pH 7.0; mean ± SD.

Assay [3] concerns the target T3, rhGAA (Myozyme) (Homo sapiens, UniProt P10253).
T3 construct: purchased Sanofi Genzyme
As to the kind of experiment: thermostability assay of Myozyme, Tycho NT.6. The format is binding.

As usually defined, the IC50 is the concentration that inhibits the measured activity by half. By EC50 is commonly meant the concentration that produces a half-maximal response.

In the case of `O=S1(=O)N[C@@H]2[C@H](O)[C@@H](O)[C@H](O)[C@@H](CO)[C@@H]2O1` [compound 4, 1,6-epi-cyclophellitol cyclosulfamidate], the IC50 in assay [1] is greater than 500 µM; in assay [2], 496 ± 30 µM. Besides, the “maximum shift in inflection temperature (ΔTimax)” value in assay [3] (Myozyme 1 μM, 0-20 μM compound, pH 6.5) was 11.2 °C. In addition, the EC50 in assay [3] (Myozyme 1 μM, 0-20 μM compound, pH 6.5, read-out: EC50 of thermal stabilization) is 1.16 µM.
In the case of `O=S1(=O)N[C@H]2[C@H](CO)[C@@H](O)[C@H](O)[C@@H](O)[C@H]2O1` [compound 6], the 50% inhibitory concentration (IC50) was greater than 500 µM in assay [1] and 47 ± 1.75 µM in assay [2]. Further, the “effect on rhGAA thermostability, in words” value in assay [3] (increasing temperature) is “does not prevent enzyme unfolding”.
